Assay [1] concerns HeLa. As to the kind of experiment: Compound was tested at concentration of 280 nM for HeLa cell cycle inhibition; arrest of G2/M phase. The assay is classed as functional, cell-based. Conditions: Homo sapiens.
Assay [2] relates to HeLa. As to the kind of experiment: Compound was tested at concentration of 28 nM for HeLa cell cycle inhibition; arrest of G1 phase. The format is functional, cell-based. Conditions: Homo sapiens.

Results on 1 compound are retold here after ChEMBL document CHEMBL1136180, “Isolation of bisindole alkaloids that inhibit the cell cycle from Myxomycetes Arcyria ferruginea and Tubifera casparyi” (Bioorg Med Chem Lett, 2003).

Molecules are shown by their SMILES.

With `O=C1NC(=O)c2c1c1c3ccc(O)cc3[nH]c1c1[nH]c3cc(O)ccc3c21`, the Concentration with HeLa [1] was 100 ng/mL; in the assay with HeLa [2], 10 ng/mL.
